From paper PMC9032693, “Biological Evaluation of New Thienopyridinium and Thienopyrimidinium Derivatives as Human Choline Kinase Inhibitors” (Pharmaceutics, 2022)
Read-outs that look alike come from different tables or passages of the source.

Assays:
CKα1 = biological target: T1, CKα1 (Homo sapiens, UniProt P35790); assay: Choline kinase assay ([methyl-14C]choline into PCho, purified enzyme); assay type: biochemical; conditions: for IC50: concentration required to inhibit CKα1 enzyme by 50%; for % Inhibition at 10 µM: purified CKα1, inhibitor 10 µM; for % Inhibition at 10 µM / % Inhibition at 30 µM: end-point assay; for % Inhibition at 30 µM: purified CKα1, inhibitor 30 µM
T1 construct: an N-terminally His-tagged truncated form of CKα1 (Δ75–457) was cloned into a pET-28a vector; His tag (N); made in house; host or cells: E. coli BL21 (DE3) Star
T1 sequence (P35790 75-457): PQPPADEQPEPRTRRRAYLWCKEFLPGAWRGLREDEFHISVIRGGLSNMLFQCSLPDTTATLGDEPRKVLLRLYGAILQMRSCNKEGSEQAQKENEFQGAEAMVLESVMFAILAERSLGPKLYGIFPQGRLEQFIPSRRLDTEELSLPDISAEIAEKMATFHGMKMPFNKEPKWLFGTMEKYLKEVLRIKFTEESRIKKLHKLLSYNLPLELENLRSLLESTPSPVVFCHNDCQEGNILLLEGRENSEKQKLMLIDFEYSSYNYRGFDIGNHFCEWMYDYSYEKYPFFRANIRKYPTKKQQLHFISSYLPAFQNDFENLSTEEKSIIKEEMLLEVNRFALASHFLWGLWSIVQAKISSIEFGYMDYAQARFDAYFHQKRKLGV
Experimental: The protein was produced and purified as previously described. Briefly, an N-terminally His-tagged truncated form of CKα1 (Δ75–457) was cloned into a pET-28a vector and expressed at 37 °C in E. coli BL21 (DE3) Star cells using 1 mM isopropyl β-D-1-thiogalactopyranoside (IPTG). After centrifugation, the cellular pellet was resuspended in 50 mM Tris-HCl pH 7.5, 500 mM NaCl, 0.2 mM phenylmethylsulphonyl fluoride (PMSF), DNase, and 0.5 mM β-mercaptoethanol, sonicated and subjected to a two-step purification procedure to isolate the target enzyme. […] Protein elution was completed using buffer A + 400 mM imidazole. A second size-exclusion chromatography step was then carried out to achieve complete purity. To this end, we used a HiPrep 26/60 Sephacryl 100 HR column (GE Healthcare, Little Chalfont, Buckinghamshire, UK) and a 20 mM Tris/HCl pH 7.5, 150 mM NaCl running buffer.
To study the effect of the compounds on CKα, an in vitro enzymatic assay was performed using the purified enzyme as previously reported in [19, 28, 29]. Briefly, the incorporation of ^14C from [methyl-^14C]choline into PCho in either the absence (control) or presence of different inhibitors at varying concentrations was used to determine the CK activity. The reaction mixture included 20 ng of purified CKα1, 10 mM ATP, 10 mM MgCl2, 100 mM Tris-HCl pH 8.5, and increasing concentrations of compounds. The mixture was preincubated at 37 °C for 5 min. Then, [methyl-^14C]choline chloride (1 mM, 4500 dpm/nmol) was added and the reaction was left to proceed for 10 min at 37 °C. The assay was stopped by immersing the reaction tubes in boiling water. PCho was separated by Thin Layer Chromatography using methanol/0.6% NaCl/28% NH4OH in water (50:50:5, v/v/v) as solvent. The radioactivity associated into PCho was determined in a Beckman 6000-TA (Madrid, Spain) liquid scintillation counter. The 50% inhibitory concentrations (IC50 values) were determined from the % enzyme activity at different concentrations of synthetic inhibitors relative to the control by using a sigmoidal dose–response curve (ED50plus v1.0 software).

A549 = assay: Antiproliferative activity, resazurin assay, 72 h; assay type: cell-based, human
Experimental: (§1) Human cervix carcinoma (HeLa), Non-small lung adenocarcinoma (A549), Colon adenocarcinoma (HT29), and human triple negative breast cancer (MDA-MB-231) were cultured in Dulbecco’s modified Eagle’s media (DMEM). B-acute lymphoblastic leukemia (RS4;11 and SEM), T-acute lymphoblastic leukemia (Jurkat), and human promyelocytic cells (HL-60), were cultured in RPMI-1640 medium. Both media were purchased from Gibco, Life Technologies (Milan, Italy) and supplemented with 10% Fetal Bovine Serum (FBS, Invitrogen, Milan, Italy,). Every six months, each cell line was checked for the presence of mycoplasma by RT-PCR.
(§2) Stock solutions (10 mM) of the different compounds were made in DMSO. Cancer cells were seeded in tissue-treated, flat bottom, 384-well plates (Corning) according to their optimal density, (A549 1000 cells/wells; MDA-MB-231, HeLa and HT-29 2000 cells/well and finally Jurkat, HL-60 SEM and RS4;11 20.000 cells/well) in 27 µL of complete medium per well.
(§3) The day after cell seeding and immediately before cell treatment, 10 mM stock solutions of the compounds were pre-diluted to a […] concentration in 250 µL of Hank’s in a 96-well plate (Corning). Subsequent 1:5 dilutions were carried out using a microlab STAR 96-CORE liquid handling system (Hamilton), a robotized liquid handling tool that was employed for all steps, from cell seeding to drug dilution and cell treatment to ensure high reproducibility while reducing time for large screening execution. This pre-dilution step was necessary to avoid DMSO-related cytotoxicity and compound precipitation in the cell culture medium. In every case, DMSO concentration never exceeded 0.1%.
(§4) Positive (Bortezomib 1 µM) and negative (0.1% DMSO) controls were included in all the screened plates to allow for monitoring the Z’ factor throughout the entire screening. Cells were treated with 3 µL of the previously made dilutions; thus, generating a 6-point 5-fold dose–response curve starting from 10 µM. Within a plate, each drug concentration was tested in duplicate in two independent experiments for each compound.
(§5) Treated cells were then placed inside the CO2 incubator for 72 h at 37 °C. Cell viability was assessed by resazurin assay, in which 3 µL of resazurin per well were added using the previously described automated platform. Plates were placed in the incubator at 37 °C for 2 h, and then the fluorescence of each plate was read using a Spark 10 M multimode microplate reader (Tecan Group Ltd., Mannedorf, Switzerland) with 535 nm excitation wavelength and 600 nm emission wavelength.

HL-60 = assay: Antiproliferative activity, resazurin assay, 72 h; assay type: cell-based, human
Experimental: as §1, §2, §3, §4, §5

HT29 = assay: Antiproliferative activity, resazurin assay, 72 h; assay type: cell-based, human
Experimental: as §1, §2, §3, §4, §5

HeLa = assay: Antiproliferative activity, resazurin assay, 72 h; assay type: cell-based, human
Experimental: as §1, §2, §3, §4, §5

Jurkat = assay: Antiproliferative activity, resazurin assay, 72 h; assay type: cell-based, human
Experimental: as §1, §2, §3, §4, §5

MDA-MB-231 = assay: Antiproliferative activity, resazurin assay, 72 h; assay type: cell-based, human
Experimental: as §1, §2, §3, §4, §5

RS 4;11 = assay: Antiproliferative activity, resazurin assay, 72 h; assay type: cell-based, human
Experimental: as §1, §2, §3, §4, §5

SEM cells = assay: Antiproliferative activity, resazurin assay, 72 h; assay type: cell-based, human
Experimental: as §1, §2, §3, §4, §5

| IC50 (CKα1) [nM] | % Inhibition at 10 µM (CKα1) [%] | % Inhibition at 30 µM (CKα1) [%] | GI50 (A549) [nM] | GI50 (HL-60) [nM] | GI50 (HT29) [nM] | GI50 (HeLa) [nM] | GI50 (Jurkat) [nM] | GI50 (MDA-MB-231) [nM] | GI50 (A549; Homo sapiens, A549) [nM] | GI50 (HL-60; Homo sapiens, HL-60) [nM] | GI50 (HT29; Homo sapiens, HT-29) [nM] | GI50 (HeLa; Homo sapiens, HeLa) [nM] | GI50 (Jurkat; Homo sapiens, Jurkat) [nM] | GI50 (MDA-MB-231; Homo sapiens, MDA-MB-231) [nM] | SMILES | GI50 (RS 4;11) [nM] | GI50 (SEM cells) [nM] | GI50 (RS 4;11; Homo sapiens, RS4-11) [nM] |
| --- | --- | --- | --- | --- | --- | --- | --- | --- | --- | --- | --- | --- | --- | --- | --- | --- | --- | --- |
| ≥ 5000 | 64.21 | 85.71 | 340 ± 60 | 200 ± 10 | 1730 ± 300 | 1030 ± 100 | > 10000 | 1100 ± 200 | – | – | – | – | – | – | [Br-].[Br-].c1cc2c(N3CCCCC3)nc[n+](Cc3ccc(OCCOc4ccc(C[n+]5cnc(N6CCCCC6)c6ccsc65)cc4)cc3)c2s1 [Ff-5] | 2450 ± 20 | 3270 ± 30 | – |
| ≥ 10000 | 46.43 | 73.19 | 190 ± 30 | 190 ± 10 | 930 ± 40 | 420 ± 50 | 6700 ± 800 | 500 ± 20 | – | – | – | – | – | – | [Br-].[Br-].c1cc2c(N3CCCCC3)nc[n+](Cc3ccc(CCCCc4ccc(C[n+]5cnc(N6CCCCC6)c6ccsc65)cc4)cc3)c2s1 [Ff-6] | 1500 ± 200 | 2520 ± 200 | – |
| – | – | – | – | – | – | – | – | – | 450 ± 90 | 930 ± 100 | 400 ± 200 | 830 ± 100 | 410 ± 100 | 170 ± 50 | C/[N+](c1ccc(Cl)cc1)=c1\ccn(Cc2ccc(-c3ccc(Cn4cc/c(=[N+](/C)c5ccc(Cl)cc5)c5ccccc54)cc3)cc2)c2ccccc12 [RSM-932A, reference compound] | – | – | 170 ± 40 |

Further lines, the compound ahead of its results:

| SMILES | IC50 (CKα1) [nM] | % Inhibition at 10 µM (CKα1) [%] | % Inhibition at 30 µM (CKα1) [%] | GI50 (A549) [nM] | GI50 (HL-60) [nM] | GI50 (HT29) [nM] | GI50 (HeLa) [nM] | GI50 (Jurkat) [nM] | GI50 (MDA-MB-231) [nM] | GI50 (A549; Homo sapiens, A549) [nM] | GI50 (HL-60; Homo sapiens, HL-60) [nM] | GI50 (HT29; Homo sapiens, HT-29) [nM] | GI50 (HeLa; Homo sapiens, HeLa) [nM] | GI50 (Jurkat; Homo sapiens, Jurkat) [nM] | GI50 (MDA-MB-231; Homo sapiens, MDA-MB-231) [nM] | GI50 (RS 4;11) [nM] | GI50 (SEM cells) [nM] | GI50 (RS 4;11; Homo sapiens, RS4-11) [nM] |
| --- | --- | --- | --- | --- | --- | --- | --- | --- | --- | --- | --- | --- | --- | --- | --- | --- | --- | --- |
| [Br-].[Br-].c1cc2c(N3CCCC3)nc[n+](Cc3ccc(CCCCc4ccc(C[n+]5cnc(N6CCCC6)c6ccsc65)cc4)cc3)c2s1 [Ff-3] | ≥ 5000 | 74.17 | 80.09 | 210 ± 20 | 210 ± 30 | 1330 ± 10 | 630 ± 20 | 7540 ± 1500 | 360 ± 30 | – | – | – | – | – | – | 2050 ± 100 | 3700 ± 400 | – |
| [Br-].[Br-].c1cc2c(N3CCCC3)nc[n+](Cc3ccc(OCCOc4ccc(C[n+]5cnc(N6CCCC6)c6ccsc65)cc4)cc3)c2s1 [Ff-4] | ≥ 10000 | 55.23 | 77.28 | 230 ± 30 | 790 ± 50 | > 10000 | > 10000 | > 10000 | 720 ± 30 | – | – | – | – | – | – | > 10000 | > 10000 | – |
| [Br-].[Br-].c1cc2c(N3CCCCC3)nc[n+](Cc3ccc(-c4ccc(C[n+]5cnc(N6CCCCC6)c6ccsc65)cc4)cc3)c2s1 [Fg-30] | ≥ 5000 | 75.46 | 85.71 | 600 ± 20 | – | 8320 ± 900 | 2890 ± 300 | > 10000 | 800 ± 20 | – | – | – | – | – | – | > 10000 | > 10000 | – |
| CN(c1ccc(Cl)cc1)c1nc[n+](Cc2ccc(-c3ccc(C[n+]4cnc(N(C)c5ccc(Cl)cc5)c5ccsc54)cc3)cc2)c2sccc12 [Fp-8] | – | – | – | 160 ± 10 | 900 ± 80 | 3930 ± 500 | 1770 ± 100 | > 10000 | 830 ± 40 | – | – | – | – | – | – | 3380 ± 50 | > 10000 | – |
| CN(C)c1cc[n+](Cc2ccc(CCCCc3ccc(C[n+]4ccc(N(C)C)cc4)cc3)cc2)cc1 [MN-48b, reference compound] | 780 ± 30 | – | – | 540 ± 200 | 320 ± 30 | 1900 ± 400 | 1900 ± 100 | 350 ± 100 | 310 ± 120 | – | – | – | – | – | – | 1000 ± 300 | – | – |
